Measurements taken from publication PMC7297445, “Pharmacokinetic/Pharmacodynamic Determination and Preclinical Pharmacokinetics of the β-Lactamase Inhibitor ETX1317 and Its Orally Available Prodrug ETX0282” (ACS Infectious Diseases, 2020).
Like-named read-outs stand apart in the source and are kept apart here.

Tests used:
[1] = Intravenous pharmacokinetics of ETX1317; format: in vivo; conditions: male, dog, i.v. 1 mg/kg
Experimental: Intravenous pharmacokinetics of ETX1317 investigated in jugular vein cannulated male Sprague–Dawley rats (Charles River Laboratories, n = 3/route) at a dose of 10 mg/kg formulated in 0.9% saline. Oral pharmacokinetics of ETX0282 was evaluated at a 10 mg/kg equivalent dose of ETX1317 formulated in 25:75 PEG 400:WFI. The pH of each formulation was verified to fall within a range of 4–7 and were confirmed to be in solution prior to dosing. Potency was verified by LC/MS/MS. Dose volumes were 5 and 10 mL/kg for ETX1317(i.v.) and ETX0282(p.o.), respectively for rats. In both dog (male, 3/route) and monkey (male, 3/route) studies, i.v. and p.o. doses were formulated on 25:75 PEG 400:WFI (pH ∼5) and administered at a dose of ∼1 mg/kg. Dose volume was 1 mL/kg for both routes in dogs and monkeys with the i.v. dose infused over 15 min. For oral doses, gavage tubes were flushed with 10 mL after administration of the dose. i.v. doses were sterile-filtered through 0.22 μm PVDF membrane prior to administration into the cephalic vein.
Blood sampling (∼1 mL) for dogs and monkeys was carried out via venipuncture of the jugular vein at the following time points:
i.v.: pre-dose, 0.083, 0.25 (prior to end of infusion), 0.5, 1, 1.5, 2, 4, 6, 8, 12, and 24 h post-dose
Blood samples were centrifuged at 3200 rpm for 10 min at approximately 5 °C. Plasma samples (500 μL) were transferred to 96-well plate tubes (MatrixTech, 0.5 mL). An equal amount (500 μL) of SIGMAFAST protease inhibitor solution (1 tablet dissolved in 10 mL distilled water, Sigma-Aldrich Part No. S8820) was added as a preservative to the 96-well plate tubes resulting in a 1:1 dilution. Diluted plasma samples were stored at −80 ± 10 °C.
Urine collection was collected directly into Nalgene bottles placed under metabolism cages with frozen ice packs to chill urine over the collection interval. Urine was collected 0–12, and 12–24 h post-dose. Following collection of each urine sample, the total urine weight was recorded and 3 mL aliquots were retained for LC/MS/MS analysis.
Non-compartmental analysis of time vs concentration data for ETX1317, ETX0282, CPD, and CPDP was completed using WinNonlin 8.1 (Pharsite Corporation, Mountain View CA). The maximum concentration (Cmax) was the highest observed concentration; Tmax was the earliest time at which Cmax occurred; and the elimination half-life was estimated as ln 2/kel, where kel is the elimination rate constant derived from the slope of the log concentration versus time profile. The area under the concentration–time curve from 0 h to the last time point (AUC0-tlast) was calculated by linear trapezoidal approximation. Clearance (CL) was estimated as Dose/AUC0-tlast and the steady state volume of distribution (Vd,ss) was estimated as CL* MRT, where MRT = AUMC/AUC (MRT = mean residence time and AUMC = area under the moment curve). Oral bioavailability (F) was determined from ETX1317 concentrations and normalizing doses to free acid equivalence, where F = AUCp.o.*(dosei.v.)/AUCi.v.*(dosep.o.).

Plasma protein binding [2] = format: in vitro ADME, mouse
Experimental: (§1) Plasma protein binding was determined by rapid equilibrium dialysis. Plasma was freshly prepared from blood samples drawn in to EDTA (anticoagulant) containing tubes. Plasma was prepared using a table-top centrifuge and spun per instruction of the tube manufacturer and specifications (Beckton, Dickinson and Company, Franklin Lakes, NJ) and placed on ice prior to use.
(§2) Pooled plasma samples were centrifuged at 2000 rpm (approximately 1400g) for 15 min at 4 °C to remove debris. Approximately 90% of the clear supernatant fraction was transferred to a separate tube. Samples (500 μL) were then spiked with a 100× stock solution 100 μM, 0.5 mM, and 10 mM ETX1317 in DMSO respectively for 1, 5, and 100 μM final concentrations, transferred to the top of the filter chambers, and allowed to equilibrate for 15 min prior to centrifugation. The filtrate tubes were centrifuged at 14000g for 15 min at 4 °C. Next, 50 μL of the filtrate was precipitated with 300 μL of acetonitrile containing 250 ng/mL of carbutamide as the internal standard and the samples were analyzed by LC/MS/MS analysis.

[3] = Mouse oral pharmacokinetics (satellite infected animals); format: in vivo
Plasma protein binding [4] = format: in vitro ADME, rat
Experimental: as §1, §2

[5] = unbound ETX1317 after oral ETX0282 10 mg/kg
[6] = unbound ETX1317 after oral ETX0282 50 mg/kg
[7] = unbound ETX1317 after oral ETX0282 200 mg/kg
[8] = unbound ETX1317 after oral ETX0282 400 mg/kg

`CC1=C[C@@H](C(N)=O)N2C[C@@H]1N(O[C@H](F)C(=O)O)C2=O` [ETX1317] showed an AUC ([1]; plasma) of 2760 ± 340 ng·h/mL, a Cmax ([1]; plasma) of 2270 ± 490 ng/mL and a half-life ([1]; plasma) of 0.8 ± 0.1 h. It also gave a clearance ([1]; plasma, read-out: CL) of 5.7 ± 0.7 mL/min/kg, a Vd ([1]; plasma, read-out: Vd,ss) of 0.38 ± 0.05 L/kg and a clearance ([1]; urine and plasma, read-out: renal CL) of 1.1 ± 0.3 mL/min/kg. For the same compound, the Proportion unbound (Plasma protein binding [2]; 1 µM) was 88%, the Proportion unbound (Plasma protein binding [2]; 5 µM) was 100% and the Proportion unbound (Plasma protein binding [2]; 100 µM) was 90%. The fraction unbound at 15 min (Plasma protein binding [2]; mouse plasma, read-out: percent unbound) was 0.93, the half-life ([3]; mouse, in vivo, mice, once formed from ETX0282) was 1.3 h and the “%Time > f[CT] 0.25 μg/mL” value ([3]; oral ETX0282 10 mg/kg) was 47%. For the same compound, the “%Time > f[CT] 0.5 μg/mL” value ([3]; oral ETX0282 10 mg/kg) was 25%, the “%Time > f[CT] 1.0 μg/mL” value ([3]; oral ETX0282 10 mg/kg) was 12% and the “%Time > f[CT] 2.0 μg/mL” value ([3]; oral ETX0282 10 mg/kg) was 8%. The “%Time > f[CT] 0.25 μg/mL” value ([3]; oral ETX0282 50 mg/kg) was 88%, the “%Time > f[CT] 0.5 μg/mL” value ([3]; oral ETX0282 50 mg/kg) was 50% and the “%Time > f[CT] 1.0 μg/mL” value ([3]; oral ETX0282 50 mg/kg) was 29%. For the same compound, the “%Time > f[CT] 2.0 μg/mL” value ([3]; oral ETX0282 50 mg/kg) was 28%, the “%Time > f[CT] 0.25 μg/mL” value ([3]; oral ETX0282 200 mg/kg) was 100% and the “%Time > f[CT] 0.5 μg/mL” value ([3]; oral ETX0282 200 mg/kg) was 100%. The “%Time > f[CT] 1.0 μg/mL” value ([3]; oral ETX0282 200 mg/kg) was 58%, the “%Time > f[CT] 2.0 μg/mL” value ([3]; oral ETX0282 200 mg/kg) was 35% and the “%Time > f[CT] 0.25 μg/mL” value ([3]; oral ETX0282 400 mg/kg) was 100%. The “%Time > f[CT] 0.5 μg/mL” value ([3]; oral ETX0282 400 mg/kg) was 100%, the “%Time > f[CT] 1.0 μg/mL” value ([3]; oral ETX0282 400 mg/kg) was 75% and the “%Time > f[CT] 2.0 μg/mL” value ([3]; oral ETX0282 400 mg/kg) was 38%. For the same compound, the fAUClast [3, 5] was 4700 ng·h/mL, the fCmax [3, 5] was 3.9 µg/mL and the fAUClast [3, 6] was 23000 ng·h/mL. For the same compound, the fCmax [3, 6] was 21 µg/mL, the fAUClast [3, 7] was 61000 ng·h/mL and the fCmax [3, 7] was 57 µg/mL. For the same compound, the fAUClast [3, 8] was 73000 ng·h/mL, the fCmax [3, 8] was 90 µg/mL and the Proportion unbound (Plasma protein binding [4]; 1 µM) was 94%. It also gave a Proportion unbound (Plasma protein binding [4]; 5 µM) of 97% and a Proportion unbound (Plasma protein binding [4]; 100 µM) of 83%.
